Assay results reported in ChEMBL document CHEMBL5257032, “Therapeutic potential of coumarins as antiviral agents” (Eur J Med Chem, 2016).
Converted amounts (≈) assume the structure as drawn. “And” between values parts separate entries of the source, which are not always exact repeats. Identical values can stand only once. One block for each molecule: values may come before it.

How the values were obtained:
[1] = target: T1, Human immunodeficiency virus type 1 protease (Human immunodeficiency virus 1, UniProt Q72874); assay: (§1) Inhibition of HIV-1 protease
[2] = Inhibition of HIV1 integrase; parameters: species or system Human immunodeficiency virus 1
[3] = target: Human immunodeficiency virus type 1 reverse transcriptase (Human immunodeficiency virus 1, UniProt Q72547); assay: Inhibition of HIV1 reverse transcriptase
[4] = test system: Human immunodeficiency virus 1; assay: Antiviral activity against HIV-1 infected in CEM-SS cells; format: functional, organism-based; details: Human immunodeficiency virus 1, CEM-SS
[5] = test system: Human immunodeficiency virus; assay: Antiviral activity against HIV infected in human H9 cells; format: functional, organism-based; details: Human immunodeficiency virus 1, H9
[6] = Therapeutic index, ratio of IC50 for cytotoxicity against human H9 cells to EC50 for antiviral activity against HIV infected in H9 cells; format: toxicity, cell-based; details: read-out: Ratio IC50/EC50
H9 = assay: Cytotoxicity against human H9 cells; format: functional, cell-based
[7] = Inhibition of Hepatitis C virus NS5B polymerase; parameters: species or system Hepacivirus hominis
[8] = Binding affinity to HIV protease assessed as inhibition constant; parameters: species or system Human immunodeficiency virus
[9] = test system: Human immunodeficiency virus 1; assay: Antiviral activity against HIV-1 infected in human H9 cells; format: functional, organism-based; details: Human immunodeficiency virus 1, H9
[10] = target: T1, Human immunodeficiency virus type 1 protease; assay: Binding affinity to HIV-1 protease assessed as inhibition constant
[11] = test system: Human immunodeficiency virus 1; assay: Antiviral activity against HIV-1 RTMDR1 infected in human MT4 cells; format: functional, organism-based; details: Human immunodeficiency virus 1, RTMDR1, MT4
[12] = target: Human immunodeficiency virus type 1 protease (Human immunodeficiency virus 1) (UniProt Q72874); assay: as §1
Human alphaherpesvirus 1 = assay: Antiviral activity against Herpes simplex virus 1; format: functional, organism-based
[13] = test system: Human immunodeficiency virus; assay: Antiviral activity against HIV; format: functional, organism-based; details: Human immunodeficiency virus 1
Hepatitis C virus [14] = assay: Antiviral activity against HCV assessed as inhibition of RNA replication; format: functional, organism-based, Hepacivirus hominis
[15] = Therapeutic index, ratio of IC50 for cytotoxicity against human H9 cells to EC50 for antiviral activity against HIV-1 infected in H9 cells; format: toxicity, cell-based; details: read-out: Ratio IC50/EC50
[16] = test system: Human immunodeficiency virus 1; assay: Antiviral activity against HIV-1 infected in human Jurkat cells; format: functional, organism-based; details: Human immunodeficiency virus 1, Jurkat
Hepatitis C virus [17] = assay: Antiviral activity against HCV assessed as inhibition of HCV RNA replication at 5.0 uM relative to control; format: functional, Hepacivirus hominis; parameters: scale not given: the % may be the effect or the level left
[18] = Inhibition of HIV protease; parameters: species or system Human immunodeficiency virus
[19] = test system: Human immunodeficiency virus 1; assay: Antiviral activity against HIV-1; format: functional, organism-based
[20] = read-out: ED50 (the source's name)

Structure (SMILES): O=c1oc2cc(O)ccc2c(O)c1-c1ccc(O)cc1
IC50 [1]: 2000 nM

IC50 [2]: 16000 nM
Structure (SMILES): COc1ccc(-c2c3c4cc(OC)c(OS(=O)(=O)O)cc4oc(=O)c3n3ccc4cc(OC)c(OC)cc4c23)cc1O

Structure (SMILES): CCCc1cc(=O)oc2c3c(c4c(c12)OC(C)(C)C=C4)O[C@H](C)[C@@H](C)[C@@H]3O [CALANOLIDE A]
IC50 [3]: 20000 nM
EC50 [4]: 100 nM

Structure (SMILES): CC(C)=CCOc1c2occc2cc2ccc(=O)oc12 [PENTOSALEN]
EC50 ([5]; read-out: EC50): < 0.1 µg/mL
selectivity ratio [6]: > 1000
IC50 (H9): > 100 µg/mL

Structure (SMILES): CCCC1(CCC)CC(O)=C(C(c2ccccc2)C2CC2)C(=O)O1 (configuration not stated)
IC50 [1]: 5000 nM

Structure (SMILES): CC(=O)CC(c1ccccc1)c1c(O)c2ccc(C)c(C)c2oc1=O (configuration not stated)
IC50 [1]: 1900 nM

IC50 [7]: 311000 nM
Structure (SMILES): COc1cc2oc(=O)c3c4cc(OC)c(O)cc4oc3c2cc1O

Structure (SMILES): CCC(c1cccc(NC(=O)CCn2ccc3ccccc32)c1)c1c(O)c2ccccc2oc1=O (configuration not stated)
Ki [8]: 110 nM

Structure (SMILES): CCC(c1cccc(NC(=O)[C@H](C)NC(=O)OC(C)(C)C)c1)c1c(O)c2ccccc2oc1=O (some centres not stated)
Ki [8]: 170 nM

Structure (SMILES): CCC(c1cccc(NS(=O)(=O)c2ccc(C#N)cn2)c1)c1c(O)c2c(oc1=O)CCCC2 (configuration not stated)
EC50 [9, 20]: 950 nM
Ki [10]: 0.05 nM

Structure (SMILES): CC1(C)OC1COc1c2occc2cc2ccc(=O)oc12 (configuration not stated)
EC50 ([5]; read-out: EC50): 2.37 µg/mL (≈ 8.28 µM)

Structure (SMILES): CC1(C)C=Cc2c(ccc3ccc(=O)oc23)O1 [SESALIN]
EC50 ([9]; read-out: EC50): 3500 nM

Structure (SMILES): CCc1cc(=O)c2ccc3c(c2o1)[C@@H](OC(=O)[C@@]12CC[C@](C)(C(=O)O1)C2(C)C)[C@@H](OC(=O)C12CCC(C)(C(=O)O1)C2(C)C)C(C)(C)O3
EC50 [11]: 60 nM

Structure (SMILES): O=c1oc2ccccc2c(O)c1C(c1ccc(C(c2c(O)c3ccccc3oc2=O)c2c(O)c3ccccc3oc2=O)cc1)c1c(O)c2ccccc2oc1=O
ID50 [12]: 1700 nM
IC50 [1]: 11500 nM

Structure (SMILES): C/C=C(\C)O[C@@H]1c2c(ccc3ccc(=O)oc23)OC(C)(C)[C@@H]1OC(C)=O
EC50 ([9]; read-out: EC50): 4600 nM

Structure (SMILES): CC(C)(O)C(O)COc1c2occc2cc2ccc(=O)oc12 (configuration not stated)
EC50 ([5]; read-out: EC50): 0.115 µg/mL (≈ 0.378 µM)

Structure (SMILES): COc1ccc(/C=N\NC(=O)COc2cc(=O)oc3ccccc23)cc1
MIC (Human alphaherpesvirus 1): 200 µg/mL (≈ 568 µM)

IC50 [3]: 30000 nM
Structure (SMILES): CCCc1cc(=O)oc2c3c(c4c(c12)OC(C)(C)C=C4)O[C@H](C)[C@H](C)[C@@H]3O [CALANOLIDE C]

Structure (SMILES): O=C(O)COc1ccc(-c2cc(O)c(SCCc3ccccc3)c(=O)o2)cc1
IC50 [1]: 160 nM

Structure (SMILES): CC(C)(C)OC(=O)NCCNc1cccc(C(c2c(O)c3c(oc2=O)CCCCCC3)C2CC2)c1 (configuration not stated)
IC50 [13]: 1000 nM
Ki [8]: 0.6 nM and 4 nM

Structure (SMILES): O=c1oc2ccc(Br)cc2cc1CSc1nc2cc(F)ccc2[nH]1
EC50 (Hepatitis C virus [14]): 3400 nM

Structure (SMILES): CCC(c1cccc(NC(=O)CCCNC(=O)OC(C)(C)C)c1)c1c(O)c2ccccc2oc1=O (configuration not stated)
Ki [8]: 1600 nM

Structure (SMILES): CC1(C)Oc2ccc3ccc(=O)oc3c2[C@@H](OC(=O)[C@@]23CC[C@](C)(C(=O)O2)C3(C)C)[C@H]1OC(=O)C12CCC(C)(C(=O)O1)C2(C)C
selectivity ratio [15]: 137000
EC50 ([9]; read-out: EC50): 0.256 nM

Structure (SMILES): CCC(c1cccc(NC(=O)[C@@H]2CCCN2C(=O)OC(C)(C)C)c1)c1c(O)c2ccccc2oc1=O (some centres not stated)
Ki [8]: 3600 nM

Structure (SMILES): O=c1ccc2cc(O)c(O)cc2o1 [ESCULETIN]
EC50 [5, 20]: 2.51 µg/mL (≈ 14.1 µM)

Structure (SMILES): CCCCCCc1cc2c(O)c(C(c3ccccc3)c3c(O)c4cc(CCCCCC)c(O)cc4oc3=O)c(=O)oc2cc1O
ID50 [12]: 320 nM

Structure (SMILES): CC(C)=CCc1c(O)c(C(=O)C(C)C)c(O)c2c(-c3ccccc3)cc(=O)oc12 [MESUOL]
IC50 [16]: 2000 nM

Structure (SMILES): Cc1c(CO)c(=O)oc2c3c(ccc12)OC(C)(C)[C@H](OC(=O)C12CCC(C)(C(=O)O1)C2(C)C)[C@@H]3OC(=O)[C@@]12CC[C@](C)(C(=O)O1)C2(C)C
EC50 ([9]; read-out: EC50): 4 nM

Structure (SMILES): CC(C)=CCc1c(O)c(C(=O)C(C)C)c2oc(=O)cc(-c3ccccc3)c2c1O [ISOMESUOL]
IC50 [16]: 2000 nM

Structure (SMILES): CC(=O)OC[C@H]1O[C@@H](n2c(SCc3cc4cc(Br)ccc4oc3=O)nc3ccccc32)[C@H](OC(C)=O)[C@@H](OC(C)=O)[C@@H]1OC(C)=O
Activity (Hepatitis C virus [17]): 90%
EC50 (Hepatitis C virus [14]): 4100 nM

Structure (SMILES): CCC(c1cccc(NC(=O)CCNC(=O)OC(C)(C)C)c1)c1c(O)c2ccccc2oc1=O (configuration not stated)
Ki [8]: 280 nM

Ki [8]: 72 nM
Structure (SMILES): CCNC(=O)Nc1cccc(C(c2c(O)c3c(oc2=O)CCCCCC3)C2CC2)c1 (configuration not stated)

Structure (SMILES): O=c1oc2cc(O)ccc2c(O)c1C(c1ccc2ccccc2c1)c1c(O)c2ccc(O)cc2oc1=O
IC50 [1]: 4200 nM

Structure (SMILES): CC(C)c1cccc(C(C)C)c1NC(=O)C(=O)CC(=O)CC(c1ccccc1)c1c(O)c2ccccc2oc1=O (configuration not stated)
ID50 [12]: 31000 nM

IC50 [18]: 57000 nM
Ki [8]: 15 nM
Structure (SMILES): O=c1oc2c(c(O)c1C(c1ccccc1)C1CC1)CCCCCC2 (configuration not stated)

Structure (SMILES): CCC(Cc1ccccc1)c1cc(O)c(C(CC)c2ccccc2)c(=O)o1 (configuration not stated)
IC50 [19]: 3000 nM

Structure (SMILES): CC(C)(O)C(O)COc1c2ccoc2cc2oc(=O)ccc12 (configuration not stated)
EC50 ([5]; read-out: EC50): 10 µg/mL (≈ 32.9 µM)

Structure (SMILES): CSc1ccc(-c2cc3ccccc3oc2=O)cc1
IC50 [13]: 18200 nM
